In US11834469B2, “AMP-activated protein kinase activating compounds and uses thereof” (Skylark Bioscience LLC, priority 2018, dated 2023):

System: HEK293 cells
Test: HEK293 Cytotoxicity Assay (CellTiterGlo, CC50)
Format: cell-based, human
From the text: Some exemplary assays and examples for assessing therapeutic efficacy, e.g., anticancer effects, of exemplary compounds of the invention are described herein or are well known in the art. HEK293 is a human kidney cell line, and efficacy on HEK293 is considered to be predictive of usefulness for therapeutic treatment.
HEK293 cells were obtained from American Type Culture Collection (ATCC) (Rockville Md.). Cells were maintained in Dulbecco's modified Eagle's medium (DMEM) (Invitrogen, Carlsbad, Calif.) with 10% fetal bovine serum (FBS), 10 mM HEPES and 1 mM sodium pyruvate. Cells were grown at 37° C. in a humidified incubator with a gas phase of 5% CO2. Cells were grown for 24 hours in a Tripleflask (NUNC) to −95% confluence and then resuspended for dispensing at 125,000 cells/mL of DMEM, 10% FBS, 10 mM Hepes and 1 mM sodium pyruvate.
HEK293 cells were seeded in 96 well microtiter plates at 10000 cells/well. After 24 hours of incubation an equal volume of fresh media containing test compounds at given concentrations was added. Plates were then incubated and cells were allowed to proliferate for 48 hours at 37° C., 95% humidity, and 5% CO2. […] A solution of Promega CellTiterGlo (100 microliters) was added by Thermo Combi and the plates were allowed to sit for 10 minutes before reading on a Perkin-Elmer EnVision with US LUM settings for 0.1 sec per well. […]

| Compound | potency relative to AICAR in HEK293 assay (HEK293 cells, times the potency of AICAR) | activity on HEK293 cells (CC50, 50% cytotoxic concentration) (at 500 uM, 48 hours with compound) |
| --- | --- | --- |
| NC(=O)c1ncn([C@@H]2O[C@H](COP(=O)(O)Oc3ccc([N+](=O)[O-])cc3)[C@@H](O)[C@H]2O)c1N [SB00039] | roughly 100 times | – |
| COP(=O)(OC)OC[C@H]1O[C@@H](n2cnc(C(N)=O)c2N)[C@H](O)[C@@H]1O [SB00024] | – | inactive |
